Consider 44 compounds from patent US6310095A, “Inhibitors of protein isoprenyl transferases” (University of Pittsburgh, priority 1998, dated 2001).

Structures can show the parent of a compound that is named as a salt.

In the first assay the target is T1, protein farnesyltransferase (Rattus norvegicus, UniProt Q02293+Q04631).
T1 construct: Rat brain protein farnesyltransferase activity is measured; from tissue; host or cells: rat brain; purified according to Reiss et al., Cell 62:81-88 (1990), steps one through three
In words: in vitro inhibition of protein farnesyltransferase (scintillation proximity assay, biotin-K Ras B fragment). It counts as biochemical. The settings on record: at 1 × 10^-5 M. The source says:
The ability of the compounds of the invention to inhibit protein farnesyltransferase or protein geranylgeranyltransferase can be measured according to the method of Moores, et al., J. Biol. Chem. 266: 14603 (1991) or the method of Vogt, et al., J. Biol. Chem. 270:660-664 (1995). In addition, procedures for determination of the inhibition of farnesylation of the oncogene protein Ras are described by Goldstein, et al., J. Biol. Chem., 266:15575-15578 (1991) and by Singh in U.S. Pat. No. 5,245,061.
In addition, in vitro inhibition of protein farnesyltransferase may be measured by the following procedure. Rat brain protein farnesyltransferase activity is measured using an Amersham Life Science commercial scintillation proximity assay kit and substituting a biotin-K Ras B fragment (biotin-[…]CO2 H), 0.1 mM final concentration, for the biotin-lamin substrate provided by Amersham. The enzyme is purified according to Reiss, Y., et al., Cell, 62: 81-88 (1990), utilizing steps one through three.
The % inhibition of protein farnesyltransferase was determined for representative compounds of the invention.
(In a scintillation proximity assay essentially only radioactivity close to the scintillant gives light.)
For orientation: inhibition means how much of the control response was suppressed. With `COc1cc(I)c(C(=O)Nc2ccc(C(=O)N[C@@H](CCSC)C(=O)O)c(-c3ccccc3)c2)cc1OC` [Example 756], testing at 10 µM gave an inhibition of 47%.

The compound `CSCC[C@H](NC(=O)c1ccc(CNc2ccc3c(c2)CCC3)cc1-c1ccccc1)C(=O)O` [Example 705] came in with an inhibition at 10 µM of 72%.

Compound `CSCC[C@H](NC(=O)c1ccc(CNc2nnc(C)s2)cc1-c1ccccc1)C(=O)O` [Example 371] came in with an inhibition at 10 µM of 66%.

In turn, `CSCC[C@H](NC(=O)c1ccc(CNc2cccc(CO)c2)cc1-c1ccccc1)C(=O)O` [Example 680] registered an inhibition at 10 µM of 58%.

The compound `CSCC[C@H](NC(=O)c1ccc(CNCCCCc2ccccc2)cc1-c1ccccc1)C(=O)O` [Example 718] showed an inhibition at 10 µM of 40%.

With `CSCC[C@H](NC(=O)c1ccc(CNc2ccc(F)cc2)cc1-c1ccccc1)C(=O)O` [Example 687], 10 µM produced 78% inhibition.

Staying with this assay, now noted: at 1 × 10^-6 M.
Regarding `CSCC[C@H](NC(=O)c1ccc(C=CCc2ccccc2)cc1-c1ccccc1C)C(=O)O` [Example 469], the “% inhibition of farnesyltransferase” value was 92%.

With `CSCC[C@H](NC(=O)c1ccc(CN(C(C)C)C2(Cc3ccccc3)CCCC2)cc1-c1ccccc1C)C(=O)O` [Example 343], the “% inhibition of farnesyltransferase” value worked out at 72%.

For `Cc1ccccc1-c1cc(CNC(C)(C)Cc2ccccc2)ccc1C(=O)N[C@@H](CCS(C)(=O)=O)C(=O)O` [Example 311], the “% inhibition of farnesyltransferase” value was 97%.

`CSCC[C@H](NC(=O)c1ccc(CN(C(C)C)C2(Cc3ccccc3)CCC2)cc1-c1ccccc1C)C(=O)O` [Example 331]: the “% inhibition of farnesyltransferase” value is reported as 98%.

`Cc1ccccc1-c1cc(COCc2ccccc2)ccc1C(=O)N[C@@H](CCS(C)(=O)=O)C(=O)O` [Example 576]: the “% inhibition of farnesyltransferase” value was determined as 88%.

With `CSCC[C@H](NC(=O)c1ccc(CN(C(C)C)C2(Cc3ccccc3)CC2)cc1-c1ccccc1C)C(=O)O` [Example 325], the “% inhibition of farnesyltransferase” value amounted to 99%.

For the compound `CSCCC(NC(=O)c1ccc(CNC(CO)c2ccccc2)cc1-c1ccccc1)C(=O)O` (centres unmarked) [Example 658], the “% inhibition of farnesyltransferase” value amounted to 73%.

For the compound “N-[4-(3-furan-2-yl-2-phenylprop-2-en-1-ylaminomethyl)-2-(2-methylphenyl)benzoyl]methionine lithium salt [Example 537]”, the “% inhibition of farnesyltransferase” value is given as 97%.

`CSCC[C@H](NC(=O)c1ccc(/C=C/CC2CCCCC2)cc1-c1ccccc1C)C(=O)O` [Example 471]: the “% inhibition of farnesyltransferase” value stood at 94%.

As to `CSCC[C@H](NC(=O)c1ccc(CN(C2CC2)C2(CC3CCCCC3)CC2)cc1-c1ccccc1C)C(=O)O` [Example 324], the “% inhibition of farnesyltransferase” value came to 98%.

Still in this assay, the particulars now being: at 1 × 10^-6 M; read-out: % inhibition of farnesyltransferase.
As for `CSCC[C@H](NC(=O)c1ccc(CN(CCc2ccccc2)Cc2ccccc2)cc1-c1ccccc1C)C(=O)O` [Example 513, N-[4-N-(2-phenylethyl)-N-benzylaminomethyl-2-(2-methylphenyl)benzoyl]methionine lithium salt], the inhibition at 1 µM came out at 96%.

`CSCC[C@H](NC(=O)c1ccc(CN[C@@H](CC2CCCCC2)[C@@H](O)[C@@H](O)CC(C)C)cc1-c1ccccc1)C(=O)O` [Example 716]: the inhibition at 1 µM was 69%.

On to `CCc1nnc(NCc2ccc(C(=O)N[C@@H](CCSC)C(=O)O)c(-c3ccccc3C)c2)s1` [Example 723], for which the inhibition at 1 µM is 87%.

For `CSCC[C@H](NC(=O)c1ccc(NC(=O)C2CCC(=O)N2)cc1-c1ccccc1)C(=O)O` (some centres unmarked) [Example 202, [4-(2-pyrrolidinone-5-ylcarbonylamino)-2-phenylbenzoyl]methionine], the inhibition at 1 µM came out at 31%.

As to `CSCC[C@H](NC(=O)c1ccc(CNc2ccccc2F)cc1-c1ccccc1)C(=O)O` [Example 642], the inhibition at 1 µM was determined as 48%.

Turning to `CSCC[C@H](NC(=O)c1ccc(CN[C@H](C)CC2CCCCC2)cc1-c1ccccc1C)C(=O)O` [Example 613, N-[4-(3-cyclohexylpropan-2-ylaminomethyl)-2-(2-methylphenyl)benzoyl]methionine], the inhibition at 1 µM worked out at 97%.

As to `CSCC[C@H](NC(=O)c1ccc(CNC(CO)Cc2ccc(Cl)cc2)cc1-c1ccccc1)C(=O)O` (some centres unmarked) [Example 662], the inhibition at 1 µM amounted to 68%.

Staying with this assay, now noted: at 1 × 10^-7 M.
Consider `CSCC[C@H](NC(=O)c1ccc(CSc2nc(C)cc(C)n2)cc1-c1ccccc1C)C(=O)O` [Example 743], for which the “% inhibition of farnesyltransferase” value is 51%.

In the case of `CSCC[C@H](NC(=O)c1ccc(CSC2=NCCS2)cc1-c1ccccc1C)C(=O)O` [Example 730], the “% inhibition of farnesyltransferase” value is 96%.

With `COc1ncc(COCc2ccc(C(=O)N[C@@H](CCSC)C(=O)O)c(-c3ccccc3C)c2)s1` [Example 896], the “% inhibition of farnesyltransferase” value was found to be 96%.

On to `CSCC[C@H](NC(=O)c1ccc(COCc2ccccc2)cc1-c1ccccc1C)C(=O)NS(=O)(=O)c1ccccc1` [Example 580], for which the “% inhibition of farnesyltransferase” value was found to be 90%.

On to `CSCC[C@H](NC(=O)c1ccc(COCc2cnco2)cc1-c1ccccc1C)C(=O)[O-].[Li+]` [Example 891], for which the “% inhibition of farnesyltransferase” value amounted to 94%.

As for `C=C(C)C1CC=C(COCc2ccc(C(=O)N[C@@H](CCSC)C(=O)O)c(-c3ccccc3C)c2)CC1` (some centres unmarked) [Example 521], the “% inhibition of farnesyltransferase” value was determined as 94%.

Take `CSCC[C@H](NC(=O)c1ccc(CSc2ncnc3[nH]cnc23)cc1-c1ccccc1C)C(=O)O` [Example 747]: the “% inhibition of farnesyltransferase” value is reported as 68%.

For the compound `CSCC[C@H](NC(=O)c1ccc(C#Cc2cncnc2)cc1-c1ccccc1C)C(=O)[O-].[Li+]` [Example 493], the “% inhibition of farnesyltransferase” value was determined as 51%.

Still in this assay, the particulars now being: at 1 × 10^-7 M; read-out: % inhibition of farnesyltransferase.
In the case of `CSCC[C@H](NC(=O)c1ccc(CNc2ccc(N3CCOCC3)cc2)cc1-c1ccccc1C)C(=O)O` [Example 863, N-[4-N-(4-morpholin-1-ylphenyl)aminomethyl-2-(2-methylphenyl)benzoyl]methionine], the inhibition at 0.1 µM is 72%.

In the case of `CCSC[C@H](CC1CCCCC1)N(Cc1ccc(C(=O)N[C@@H](CCSC)C(=O)O)c(-c2ccccc2C)c1)C(=O)OC(C)(C)C` [Example 948, N-[4-N-t-Butyloxycarbonyl-N-(3-cyclohexyl-1-ethylthiopropan-2-yl)aminomethyl-2-(2-methylphenyl)benzoyl]methionine], the inhibition at 0.1 µM stood at 75%.

The assay is the same for the next values; noted with them: at 1 × 10^-8 M.
As to `CSCC[C@H](NC(=O)c1ccc(CO[C@H](CSc2ccccc2)CC2CCCCC2)cc1-c1ccccc1C)C(=O)O` [Example 884], the “% inhibition of farnesyltransferase” value is on record as 94%.

Take `CSCC[C@H](NC(=O)c1ccc(CON=C(Cc2ccccc2)Cc2ccccc2)cc1-c1ccccc1C)C(=O)O` [Example 888]: the “% inhibition of farnesyltransferase” value worked out at 86%.

Consider `CSCC[C@H](NC(=O)c1ccc(COCc2ccc(-c3ccc(C(C)C)cc3)o2)cc1-c1ccccc1C)C(=O)[O-].[Li+]` [Example 820], for which the “% inhibition of farnesyltransferase” value stood at 66%.

Regarding `CSCC[C@H](NC(=O)c1ccc(COCc2cnc(-c3cccc(F)c3)s2)cc1-c1ccccc1C)C(=O)[O-].[Li+]` [Example 898], the “% inhibition of farnesyltransferase” value is given as 82%.

The assay is the same for the next values; noted with them: at 1 × 10^-8 M; read-out: % inhibition of farnesyltransferase.
In the case of `CSCC[C@H](NC(=O)c1ccc(CN(CCc2ccccc2)c2cncnc2)cc1-c1ccccc1C)C(=O)O` [Example 518, N-[4-N-(2-phenyethyl)-N-pyrimidin-5-ylaminomethyl-2-(2-methylphenyl)benzoyl]methionine lithium salt], the inhibition at 0.01 µM came to 90%.

With `CCSC[C@H](CC(C)C)NCc1ccc(C(=O)N[C@@H](CCSC)C(=O)O)c(-c2ccccc2C)c1` [Example 905, N-[4-(N-(1-ethylthio-4-methylpentan-2-yl)aminomethyl)-2-(2-methylphenyl)benzoyl]-methionine], the inhibition at 0.01 µM was 86%.

As for `CSCC[C@H](NC(=O)c1ccc(CN(Cc2ccccc2)c2cccc(C(C)=O)c2)cc1-c1ccccc1C)C(=O)O` [Example 845, N-[4-N-(N-benzyl-N-(3-acetylphenyl)aninomethyl)-2-(2-methylphenyl)benzoyl]methionine lithium salt], the inhibition at 0.01 µM was determined as 85%.

Take `CSCC[C@H](NC(=O)c1ccc(CN[C@@H](CC2CCCCC2)C(=O)N2CCCCC2)cc1-c1ccccc1C)C(=O)O` [Example 887, N-[4-N-(3-Cyclohexyl-1-oxo-1-piperidin-1-ylpropan-2-yl)aminomethyl-2-(2-methylphenyl)benzoyl]-methionine lithium salt]: the inhibition at 0.01 µM was determined as 92%.

On to `COc1cccc(N(Cc2ccccc2)Cc2ccc(C(=O)N[C@@H](CCSC)C(=O)O)c(-c3ccccc3C)c2)c1` [Example 833, N-[4-N-benzyl-N-3-methoxyphenylaminomethyl-2-(2-methylphenyl)benzoyl]methionine lithium salt], for which the inhibition at 0.01 µM came to 78%.

Still in this assay, the particulars now being: read-out: % inhibition of farnesyltransferase.
As for `CSCC[C@H](NC(=O)c1ccc(CN(Cc2ccccc2)c2cccc(SC)c2)cc1-c1ccccc1C)C(=O)O` [Example 851, N-[4-(N-benzyl-N-(3-methylthiophenyl)aminomethyl)-2-(2-methylphenyl)benzoyl]methionine lithium salt], the inhibition at 0.01 µM was determined as 82%.

Consider `CSCC[C@H](NC(=O)c1ccc(CNCc2ccco2)cc1-c1ccccc1)C(=O)O` [Example 302, [4-(2-furylmethylaminomethyl)-2-phenylbenzoyl]methionine lithium salt], for which the inhibition at 1 µM turned out to be 31%.
